“Also recorded” adds a separate entry of the source.
Assays:
[1] = system: phospho-PKC (pan); test: Western blot of phospho-PKC (pan) in A549 cells; assay type: cell-based
Experimental: Cancer cells (2-8 million cells) were seeded in 10 cm dishes and grown overnight. For A549 lung cancer cell line, about 3 million cells were seeded. Cells were then treated with different drugs at indicated concentrations (see Table 8) for a period of time up to 48 hours. Cells were lysed in 0.3-0.5 mL of RIPA buffer (Sigma) supplemented with protease inhibitors (Roche) and phosphatase inhibitors (Sigma). Lysates were assayed for protein concentration using BCA kit (Pierce). Normalized amount of lysates (20-30 μg protein/lane) were run on 4-12% NuPage gel (Life Technologies) and the proteins were transferred to the PVDF or nitrocellulose membrane using iBlot® Transfer Stack (Life Technologies). The membranes were probed with primary antibodies shown in Table 8 at 4° C. overnight after blocking with 1×TBST containing 5% non-fat milk. Antibodies from other vendors could also be used in Western blot analysis. After washing 5 times with 1×TBS containing 0.1% Tween20, the membranes were probed with 2nd antibodies Anti-mouse IgG Dylight 800 conjugate or Anti-rabbit IgG DyLight 680 conjugate (1:10000; Cell signaling or similar IR 2nd antibodies from different vendors) at room temperature for one hour. After washing 5 times, the membranes were scanned using Odyssey® Imaging System (Licor Biosciences).

[2] = system: Wnt signaling pathway; test: TOPFlash / TK-RL Dual Luciferase assay (Wnt signaling), A549; assay type: cell-based; conditions: 24 hours, K101A 1, 3, 10 μM, K102 0.03, 0.1, 0.3 μM
Experimental: A549 cells (20K cells/well) were seeded in 96-well plates on Day 1. Cells were transfected with a mixture of TOPFlash firefly luciferase reporter plasmid M50 (300 ng/well) (Adagene) and an internal control plasmid pRL-TK-Renilla luciferase (20 ng/well) (Promega) using FuGene transfection reagent (plasmid:FuGene=1:4) (Promega) on Day 2. […] Luciferase activities in treated cells were measured using Dual-Glo Luciferase Kit according to manufacturer's instructions (Promega) on Envision (Perkin Elmer). TOPFlash has been used as a reporter for activation of Wnt signaling pathway. […] It has been reported that PKC activators, via suppression of K-Ras stemness pathway, can block canonical Wnt signaling in pancreatic cancer cells. The data here indicate that PKC activator can also block canonical Wnt signaling in lung cancer cells.

[3] = literature reports; cited from earlier work
[4] = system: Cancer cell lines (161 different lines); test: Proliferation assay, 161 cancer cell lines, 72 hours; assay type: cell-based
Experimental: Cells were treated for 72 hours instead of 96 hours. Thus, cell numbers from individual cell line were optimized so that cells were ˜70-80% confluent in 72 hours when treated with vehicle only. […] A number of other cancer cell lines from bladder, ovarian, myeloma, prostrate, and renal cancers are also sensitive to K-101A. Most cell lines from liver and lung (SCLC) are resistant to K101A.

[5] = system: PKCμ; test: PKCμ phosphorylation in A549, HCT116, SW620, Panc02.13 cells, Western blot; assay type: cell-based; conditions: 30 minutes
Experimental: Non-cancerous lung fibroblast cell line HFL-1 or cancer cells (2-8 million cells) were seeded in 10 cm dishes and grown overnight so that the cells were about 40-80% confluent before treatment with the compound. Cells were then treated with different drugs at indicated concentrations (see descriptions for FIG. 11 and FIG. 12) for 30 minutes. Cell lysate preparation, protein quantitation, SDS-PAGE, and Western blotting procedures are described in Example 2 and 4. Primary antibodies used in this Example and later Examples of this application are shown in Table A. Secondary antibodies Anti-mouse IgG HRP conjugate or Anti-rabbit IgG HRP conjugate (dilutions from 1:2000-1:10000) were used. Western blot membranes were scanned using Imagequant LAS4000 (GE).

SMILES | phospho-PKC (pan) level ([1]; 0.5 uM of K-101A) | phospho-PKC (pan) levels ([1]; 48 hours, K-103, K-102 at 0.5 μM, K-101A at 2.5 μM) | maximal inhibition of TOPFlash activity [2] | tumor promotion [3] | sensitivity of most cell lines from liver and lung (SCLC) [4] | cell lines showing top inhibition above 30% ([4]; 161 cell lines) | cell lines showing top inhibition above 50% ([4]; 161 cell lines) | lines having a top inhibition above 30% ([4]; breast cancer cell lines) | lines having a top inhibition above 30% ([4]; leukemia cell lines) | PKCμ activation, phosphorylation at Ser744/748 [5] | PKCμ activation, phosphorylation at Ser916 [5]
CC(=O)O[C@@]12C[C@@H](C)[C@]3(O)C4C=C(C)C(=O)[C@@]4(O)CC(CO)=C[C@H]3[C@@H]1C2(C)C (some centres unmarked) [Compound K-101A, Prostratin] | without affecting | reduction | about 60% | non-tumor-promoting | resistant | Roughly 50 % of the cell lines | ~25 % of the cell lines | 9 out of 18 | 10 out of 11 | – | –
C/C=C(/C)C(=O)O[C@H]1C(C)=C[C@]23C(=O)[C@@H](C=C(CO)[C@@H](O)[C@]12O)[C@H]1[C@@H](C[C@H]3C)C1(C)C [Compound K-102, Ingenol-3-angelate, reference compound] | – | – | – | – | – | – | – | – | – | observed for all four cancer cell lines | observed primarily in cell lines A549 and Pan 02,13; also recorded: observed primarily in cell lines A549 and Panc02.13
